This is an account of results in patent publication US20250340575A1, “4-AMINOPYRROLO[2,1-F][1,2,4]TRIAZINES AND PREPARATION AND USES THEREOF” (Biosplice Therapeutics, Inc., priority 2024, published 2025).

The IC50 is the midpoint of a concentration-inhibition curve.

This test addresses recombinant DYRK1A kinase (Homo sapiens, UniProt Q13627). Briefly: DYRK1A kinase assay (Ser/Thr 18 peptide Z-lyte FRET). Particulars: DYRK1A 0.25 μg/mL, ATP 15 μM, Ser/Thr peptide 18 4 μM, one hour at room temperature, 11-point dose-response from 10 μM. Format: biochemical. As to the method:
Representative compounds were screened using the assay procedure for DYRK1A kinase activity as described below.
Each compound was dissolved in DMSO as a 10 mM stock and used to prepare compound source plates. Serial dilution (1:3, 11-point dose-response curves from 10 μM to 0.00016 μM) and compound transfer was performed using the ECHO 550 (Labcyte, Sunnyvale, CA) into 1536-well black-walled round bottom plates (Corning).
The DYRK1A kinase assay was run using the Ser/Thr 18 peptide Z-lyte assay kit according to manufacturer's instructions (Life Technologies—a Division of Thermo-Fisher). This is a non-radioactive assay using fluorescence resonance energy transfer (FRET) between coumarin and fluorescein to detect kinase activity which is represented as a ratio of coumarin emission/fluorescein emission.
Briefly, recombinant DYRK1A kinase, ATP and Ser/Thr peptide 18 were prepared in 1× Kinase buffer to final concentrations of 0.25 μg/mL, 15 μM, and 4 μM respectively. The mixture was allowed to incubate with the representative compounds for one hour at room temperature. All reactions were performed in duplicate. Unphosphorylated (“0% Control”) and phosphorylated (“100% control”) forms of Ser/Thr 18 served as control reactions. Additionally, an 11-point dose-response curve of Staurosporine (1 uM top) was run to serve as a positive compound control.
After incubation, Development Reagent A was diluted in Development Buffer then added to the reaction and allowed to further incubate for one hour at room temperature. The plate was read at Ex 400 Em 455 to detect the coumarin signal and Ex 400 Em 520 to measure the signal (EnVision Multilabel Plate Reader, PerkinElmer).
The Emission ratio (Em) was calculated as a ratio of the coumarin (C) emission signal (at 445 nm)/Fluorescein (F) emission signal (at 520 nm). The percent phosphorylation was then calculated using the following formula: [1−((Em ratio×F100%)−C100%)/((C0%−C100%)+(Em ratio×(F100%−F0%)))]. Dose-response curves were generated, and inhibitory concentration (IC50) values were calculated using non-linear regression curve fit in the Dotmatics' Studies Software (Bishops Stortford, UK).
For `CC(=O)N1CC[C@H](Nc2nc(N)c3c(-c4ccc5nccn5n4)c(F)cn3n2)[C@H](F)C1` [Compound 38, 1-((3R,4S)-4-((4-Amino-6-fluoro-5-(imidazo[1,2-b]pyridazin-6-yl)pyrrolo [2,1-f][1,2,4]triazin-2-yl)amino)-3-fluoropiperidin-1-yl)ethan-1-one], the IC50 is 3.4 nM.
For `Nc1nc(N[C@H]2CCN(C3COC3)C[C@H]2F)nn2cc(F)c(-c3ccc4nccn4n3)c12` [Compound 39, 6-Fluoro-N2-((3R,4S)-3-fluoro-1-(oxetan-3-yl)piperidin-4-yl)-5-(imidazo[1,2-b]pyridazin-6-yl)pyrrolo[2,1-f][1,2,4]triazine-2,4-diamine], the IC50 was 3.1 nM.
To `CN1CC[C@@H](Nc2nc(N)c3c(-c4ccc5nccn5n4)c(F)cn3n2)C(F)(F)C1` [Compound 40, (R)—N2-(3,3-Difluoro-1-methylpiperidin-4-yl)-6-fluoro-5-(imidazo[1,2-b]pyridazin-6-yl)pyrrolo[2,1-f][1,2,4]triazine-2,4-diamine] belongs 2.7 nM; to `CC(=O)N1CC[C@@H](Nc2nc(N)c3c(-c4ccc5nccn5n4)c(F)cn3n2)C(F)(F)C1` [Compound 41, (R)-1-(4-((4-Amino-6-fluoro-5-(imidazo[1,2-b]pyridazin-6-yl)pyrrolo[2,1-f][1,2,4]triazin-2-yl)amino)-3,3-difluoropiperidin-1-yl)ethan-1-one], 2 nM; to `Nc1nc(N[C@@H]2CCN(C3COC3)CC2(F)F)nn2cc(F)c(-c3ccc4nccn4n3)c12` [Compound 43, (R)—N2-(3,3-Difluoro-1-(oxetan-3-yl)piperidin-4-yl)-6-fluoro-5-(imidazo [1,2-b]pyridazin-6-yl)pyrrolo[2,1-f][1,2,4]triazine-2,4-diamine], 3.1 nM.
To `CNc1nc(N[C@@H]2CCN(C(C)=O)CC2(F)F)nn2ccc(-c3ccc4nccn4n3)c12` [Compound 46, (R)-1-(3,3-Difluoro-4-((5-(imidazo[1,2-b]pyridazin-6-yl)-4-(methylamino)pyrrolo[2,1-f][1,2,4]triazin-2-yl)amino)piperidin-1-yl)ethan-1-one] belongs 3 nM; to `CNc1nc(N[C@@H]2CCN(S(C)(=O)=O)CC2(F)F)nn2ccc(-c3ccc4nccn4n3)c12` [Compound 48, (R)—N2-(3,3-Difluoro-1-(methylsulfonyl)piperidin-4-yl)-5-(imidazo[1,2-b]pyridazin-6-yl)-N4-methylpyrrolo[2,1-f][1,2,4]triazine-2,4-diamine], 2.2 nM; to `CNc1nc(N[C@H]2CCN(C(C)=O)C[C@H]2F)nn2cc(F)c(-c3ccc4nccn4n3)c12` [Compound 53, 1-((3R,4S)-3-Fluoro-4-((6-fluoro-5-(imidazo[1,2-b]pyridazin-6-yl)-4-(methylamino)pyrrolo[2,1-f][1,2,4]triazin-2-yl)amino)piperidin-1-yl)ethan-1-one], 2.5 nM.
As for `CNc1nc(N[C@H]2CCN(C3COC3)C[C@H]2F)nn2cc(F)c(-c3ccc4nccn4n3)c12` [Compound 54, 6-Fluoro-N^2-((3R,4S)-3-fluoro-1-(oxetan-3-yl)piperidin-4-yl)-5-(imidazo [1,2-b]pyridazin-6-yl)-N^4-methylpyrrolo[2,1-f][1,2,4]triazine-2,4-diamine], the IC50 stood at 2.4 nM.
With `CNc1nc(N[C@@H]2CCN(C)CC2(F)F)nn2cc(F)c(-c3ccc4nccn4n3)c12` [Compound 55, (R)—N^2-(3,3-Difluoro-1-methylpiperidin-4-yl)-6-fluoro-5-(imidazo[1,2-b]pyridazin-6-yl)-N^4-methylpyrrolo[2,1-f][1,2,4]triazine-2,4-diamine] the figure was 4 nM; with `CNc1nc(N[C@@H]2CCN(C(C)=O)CC2(F)F)nn2cc(F)c(-c3ccc4nccn4n3)c12` [Compound 56, (R)-1-(3,3-Difluoro-4-((6-fluoro-5-(imidazo[1,2-b]pyridazin-6-yl)-4-(methylamino)pyrrolo[2,1-f][1,2,4]triazin-2-yl)amino)piperidin-1-yl)ethan-1-one], 1.4 nM; with `CNc1nc(N[C@@H]2CCN(C3COC3)CC2(F)F)nn2cc(F)c(-c3ccc4nccn4n3)c12` [Compound 58, (R)—N^2-(3,3-Difluoro-1-(oxetan-3-yl)piperidin-4-yl)-6-fluoro-5-(imidazo[1,2-b]pyridazin-6-yl)-N^4-methylpyrrolo[2,1-f][1,2,4]triazine-2,4-diamine], 1.9 nM.
With `C[C@]1(O)CC[C@H](Nc2nc(N)c3c(-c4ccc5ncn(CCF)c5n4)ccn3n2)CC1` [Compound 112, (1r,4r)-4-((4-Amino-5-(3-(2-fluoroethyl)-3H-imidazo[4,5-b]pyridin-5-yl)pyrrolo[2,1-f][1,2,4]triazin-2-yl)amino)-1-methylcyclohexan-1-ol] the figure was 1.2 nM.
With `CN1CC[C@H](Nc2nc(N)c3c(-c4ccc5ncn(CCF)c5n4)ccn3n2)[C@H](F)C1` [Compound 113, N^2-((3R,4S)-3-Fluoro-1-methylpiperidin-4-yl)-5-(3-(2-fluoroethyl)-3H-imidazo[4,5-b]pyridin-5-yl)pyrrolo[2,1-f][1,2,4]triazine-2,4-diamine] the figure was 0.8 nM; with `COCCN1CC[C@H](Nc2nc(N)c3c(-c4ccc5ncn(CCF)c5n4)ccn3n2)[C@H](F)C1` [Compound 114, N^2-((3R,4S)-3-Fluoro-1-(2-methoxyethyl)piperidin-4-yl)-5-(3-(2-fluoroethyl)-3H-imidazo[4,5-b]pyridin-5-yl)pyrrolo[2,1-f][1,2,4]triazine-2,4-diamine], 1.6 nM.
Consider `CC(=O)N1CC[C@H](Nc2nc(N)c3c(-c4ccc5ncn(CCF)c5n4)ccn3n2)[C@H](F)C1` [Compound 115, 1-((3R,4S)-4-((4-Amino-5-(3-(2-fluoroethyl)-3H-imidazo[4,5-b]pyridin-5-yl)pyrrolo[2,1-f][1,2,4]triazin-2-yl)amino)-3-fluoropiperidin-1-yl)ethan-1-one], for which the half-maximal inhibitory concentration (IC50) turned out to be 1 nM.
To `Nc1nc(N[C@@H]2CCN(C3COC3)C[C@@H]2F)nn2ccc(-c3ccc4ncn(CCF)c4n3)c12` [Compound 116, N^2-((3S,4R)-3-Fluoro-1-(oxetan-3-yl)piperidin-4-yl)-5-(3-(2-fluoroethyl)-3H-imidazo[4,5-b]pyridin-5-yl)pyrrolo[2,1-f][1,2,4]triazine-2,4-diamine] belongs 1.6 nM.
On to `Nc1nc(N[C@H]2CCN(C3COC3)C[C@H]2F)nn2ccc(-c3ccc4ncn(CCF)c4n3)c12` [Compound 117, N^2-((3R,4S)-3-Fluoro-1-(oxetan-3-yl)piperidin-4-yl)-5-(3-(2-fluoroethyl)-3H-imidazo[4,5-b]pyridin-5-yl)pyrrolo[2,1-f][1,2,4]triazine-2,4-diamine], for which the IC50 was 0.9 nM.
To `CC(=O)N1CC[C@@H](Nc2nc(N)c3c(-c4ccc5ncn(CCF)c5n4)ccn3n2)C(F)(F)C1` [Compound 118, (R)-1-(4-((4-Amino-5-(3-(2-fluoroethyl)-3H-imidazo[4,5-b]pyridin-5-yl)pyrrolo[2,1-f][1,2,4]triazin-2-yl)amino)-3,3-difluoropiperidin-1-yl)ethan-1-one] belongs 0.5 nM; to `Nc1nc(N[C@@H]2CCN(C3COC3)CC2(F)F)nn2ccc(-c3ccc4ncn(CCF)c4n3)c12` [Compound 119, (R)—N^2-(3,3-Difluoro-1-(oxetan-3-yl)piperidin-4-yl)-5-(3-(2-fluoroethyl)-3H-imidazo[4,5-b]pyridin-5-yl)pyrrolo[2,1-f][1,2,4]triazine-2,4-diamine], 1.4 nM; to `CN1CC[C@H](Nc2nc(N)c3c(-c4ccc5ncn(CC(F)F)c5n4)ccn3n2)[C@H](F)C1` [Compound 120, 5-(3-(2,2-Difluoroethyl)-3H-imidazo[4,5-b]pyridin-5-yl)-N^2-((3R,4S)-3-fluoro-1-methylpiperidin-4-yl)pyrrolo[2,1-f][1,2,4]triazine-2,4-diamine], 0.7 nM.
`COCCN1CC[C@H](Nc2nc(N)c3c(-c4ccc5ncn(CC(F)F)c5n4)ccn3n2)[C@H](F)C1` [Compound 121, 5-(3-(2,2-difluoroethyl)-3H-imidazo[4,5-b]pyridin-5-yl)-N^2-((3R,4S)-3-fluoro-1-(2-methoxyethyl)piperidin-4-yl)pyrrolo[2,1-f][1,2,4]triazine-2,4-diamine]: the IC50 was found to be 0.8 nM.
With `Nc1nc(N[C@@H]2CCN(C3COC3)C[C@@H]2F)nn2ccc(-c3ccc4ncn(CC(F)F)c4n3)c12` [Compound 122, 5-(3-(2,2-Difluoroethyl)-3H-imidazo[4,5-b]pyridin-5-yl)-N^2-((3S,4R)-3-fluoro-1-(oxetan-3-yl)piperidin-4-yl)pyrrolo[2,1-f][1,2,4]triazine-2,4-diamine], the 50% inhibitory concentration (IC50) came to 1.1 nM.
